According to US20260297060A1, “COMPOUNDS FOR THE DEGRADATION OF MUTANT BRAF” (C4 THERAPEUTICS, INC., priority 2023, published 2026):
Where two headings read alike, the source gives them in different places.

Legend:
BRAF V600E = biological target: T1, BRAF V600E (Homo sapiens, UniProt P15056+Q96SW2, V600E); test: BRAF V600E HiBiT Degradation Assay; format: cell-based; settings: A375.10 cells, BRAF V600E
T1 construct: knock-in of the HiBiT tag to the endogenous BRAF V600E locus; host or cells: A375.10 (A375 clonal line, CRISPR HiBiT knock-in at the endogenous BRAF V600E locus)
T1 sequence (P15056 whole entry V600E): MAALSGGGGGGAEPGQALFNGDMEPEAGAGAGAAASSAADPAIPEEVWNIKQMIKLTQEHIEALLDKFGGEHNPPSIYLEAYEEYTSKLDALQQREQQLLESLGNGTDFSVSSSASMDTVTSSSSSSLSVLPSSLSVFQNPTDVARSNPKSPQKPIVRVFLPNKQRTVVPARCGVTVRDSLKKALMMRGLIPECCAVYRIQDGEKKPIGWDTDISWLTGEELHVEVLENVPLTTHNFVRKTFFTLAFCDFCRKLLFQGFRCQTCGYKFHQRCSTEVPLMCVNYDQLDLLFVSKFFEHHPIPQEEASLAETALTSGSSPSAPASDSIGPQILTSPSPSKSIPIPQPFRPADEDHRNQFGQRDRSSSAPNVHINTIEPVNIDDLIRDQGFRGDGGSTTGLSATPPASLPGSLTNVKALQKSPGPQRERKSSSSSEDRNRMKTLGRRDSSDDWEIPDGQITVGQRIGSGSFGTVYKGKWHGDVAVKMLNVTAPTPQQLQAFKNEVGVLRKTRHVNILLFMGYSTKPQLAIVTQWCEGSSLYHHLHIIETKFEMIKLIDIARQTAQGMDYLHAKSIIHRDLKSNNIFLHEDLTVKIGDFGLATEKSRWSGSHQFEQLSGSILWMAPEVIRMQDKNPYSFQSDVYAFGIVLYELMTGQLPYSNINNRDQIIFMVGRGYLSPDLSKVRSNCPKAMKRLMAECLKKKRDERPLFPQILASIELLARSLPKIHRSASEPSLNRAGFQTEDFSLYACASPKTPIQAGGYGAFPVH
T1 sequence (Q96SW2 whole entry): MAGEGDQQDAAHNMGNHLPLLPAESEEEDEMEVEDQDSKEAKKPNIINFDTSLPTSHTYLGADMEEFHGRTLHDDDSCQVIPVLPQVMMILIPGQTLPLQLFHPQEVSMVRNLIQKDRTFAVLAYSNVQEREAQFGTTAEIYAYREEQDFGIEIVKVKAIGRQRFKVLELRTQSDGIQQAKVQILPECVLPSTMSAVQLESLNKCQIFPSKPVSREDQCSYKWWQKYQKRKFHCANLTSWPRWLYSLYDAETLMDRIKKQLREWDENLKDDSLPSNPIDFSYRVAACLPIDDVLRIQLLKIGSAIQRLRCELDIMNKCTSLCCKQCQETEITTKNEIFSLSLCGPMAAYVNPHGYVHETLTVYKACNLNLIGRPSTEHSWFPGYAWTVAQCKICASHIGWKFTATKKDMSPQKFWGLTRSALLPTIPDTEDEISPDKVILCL
T1 sequence (Q16531 whole entry partner): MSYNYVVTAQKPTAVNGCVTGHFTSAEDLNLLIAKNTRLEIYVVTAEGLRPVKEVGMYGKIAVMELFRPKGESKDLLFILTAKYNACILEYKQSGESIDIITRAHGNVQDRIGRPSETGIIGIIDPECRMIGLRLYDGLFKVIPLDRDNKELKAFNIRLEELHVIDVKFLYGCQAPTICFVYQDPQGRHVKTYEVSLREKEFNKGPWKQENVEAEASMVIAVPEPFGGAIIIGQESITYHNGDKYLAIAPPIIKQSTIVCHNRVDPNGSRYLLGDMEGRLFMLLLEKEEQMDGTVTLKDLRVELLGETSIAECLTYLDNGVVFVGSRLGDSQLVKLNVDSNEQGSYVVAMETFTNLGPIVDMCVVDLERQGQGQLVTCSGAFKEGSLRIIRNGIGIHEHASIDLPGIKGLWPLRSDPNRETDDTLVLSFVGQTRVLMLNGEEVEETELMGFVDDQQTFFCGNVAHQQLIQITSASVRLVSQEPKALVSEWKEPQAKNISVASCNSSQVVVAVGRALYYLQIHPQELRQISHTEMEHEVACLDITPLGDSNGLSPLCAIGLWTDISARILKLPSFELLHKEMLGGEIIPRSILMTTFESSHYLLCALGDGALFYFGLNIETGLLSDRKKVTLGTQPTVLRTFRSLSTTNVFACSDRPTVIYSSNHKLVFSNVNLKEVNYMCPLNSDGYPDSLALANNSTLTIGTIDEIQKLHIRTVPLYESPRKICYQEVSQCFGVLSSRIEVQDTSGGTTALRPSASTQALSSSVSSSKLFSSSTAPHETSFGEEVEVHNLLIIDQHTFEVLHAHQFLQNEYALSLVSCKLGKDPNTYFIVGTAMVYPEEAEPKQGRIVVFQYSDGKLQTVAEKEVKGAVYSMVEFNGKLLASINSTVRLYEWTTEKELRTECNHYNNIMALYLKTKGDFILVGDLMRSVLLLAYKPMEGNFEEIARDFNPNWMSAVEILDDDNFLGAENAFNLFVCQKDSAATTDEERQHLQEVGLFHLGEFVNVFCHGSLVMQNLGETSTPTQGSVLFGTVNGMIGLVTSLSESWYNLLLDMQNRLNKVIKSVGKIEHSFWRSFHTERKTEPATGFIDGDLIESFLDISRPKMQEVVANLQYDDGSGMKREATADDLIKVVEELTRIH
Procedure, shortened: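 Endogenous HiBiT knock-in on BRAF V600E in A375 cells (clone A375.10); 11-point half-log series, top 10 μM, 2, 6 or 24 h at 37° C. Lytic HiBiT luminescence, background-subtracted, normalized to DMSO; 4-parameter fit gives DC50, Emax (residual protein) and IP (inflection point).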

A375-NRAS^Q61K cells = test: CTGlo Cell Viability Assay, A375-NRAS^Q61K (A375.11) cells, 96 hours; format: cell-based, human; settings: A375.11 (A375-NRAS^Q61K) cells; for Emax / CTGlo A375.11 96 hours Emax: lowest % viability achieved
Procedure, shortened: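 Viability as CellTiter-Glo ATP luminescence after 96 h compound exposure at 37 °C; A375.11 (BRAF V600E/NRAS Q61K) cells at 250/well, top final concentration 10 μM in half-log steps. Signal was background-corrected and set relative to DMSO controls. A 4-parameter logistic fit gave GI50 (50% crossing) and Emax.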

[1] = 2 hours, residual protein remaining, read-out: HiBiT-Degradation A375.10 BRAF 2 hours Emax
[2] = read-out: HiBiT-Degradation A375.10 BRAF 2 hours DC50, 2 hours
[3] = 2 hours, residual protein remaining
[4] = 2 hours, inflection point, read-out: HiBiT-Degradation A375.10 BRAF 2 hours IP
[5] = 2 hours, read-out: HiBiT-Degradation A375.10 BRAF 2 hours DC50
[6] = HiBiT, 24 hours, read-out: HiBiT-Degradation A375.10 BRAF 24 hours DC50
[7] = HiBiT, 24 hours, read-out: HiBiT-Degradation A375.10 BRAF 24 hours Emax
[8] = HiBiT, 24 hours, read-out: HiBiT-Degradation A375.10 BRAF 24 hours IP

HiBiT-Degradation A375.10 BRAF 2 hours IP (BRAF V600E; 2 hours, inflection point) | Emax (BRAF V600E; [1]) | DC50 (BRAF V600E; [2]) | GI50 (A375-NRAS^Q61K cells) | HiBiT-Degradation A375.10 BRAF 2 hours Emax (BRAF V600E; [3]) | DC50 (BRAF V600E; [4]) | DC50 (BRAF V600E; [5]) | GI50 (A375-NRAS^Q61K cells; Homo sapiens, 96 h) | HiBiT-Degradation A375.10 BRAF 24 hours Emax (BRAF V600E; HiBiT, 24 hours) | DC50 (BRAF V600E; [6]) | Emax (BRAF V600E; [7]) | DC50 (BRAF V600E; [8]) | Structure (SMILES) | Emax (A375-NRAS^Q61K cells; Homo sapiens, 96 h) | CTGlo A375.11 96 hours Emax (A375-NRAS^Q61K cells)
*** (<=1 μM) | 50 to 90% | < 1 µM | > 10 µM |  |  |  |  |  |  |  |  | CO[C@H]1CCN(S(=O)(=O)Nc2ccc(F)c(Oc3ccc4ncc(C5CC6(CCN(C7CCC(c8cc9c(cc8F)c(N8CCC(=O)NC8=O)nn9C)CC7)CC6)C5)nc4c3)c2C#N)C1 (single isomer, unassigned) [Compound 275] | 50 to 90% | 
*** (<=1 μM) |  | < 1 µM | 1 to 10 µM | ** (<90% and >50%) |  |  |  |  |  |  |  | CO[C@H]1CCN(S(=O)(=O)Nc2ccc(F)c(Oc3ccc4ncc(C5CC6(CCN(C7CCC(c8cc9c(cc8F)c(N8CCC(=O)NC8=O)nn9C)CC7)CC6)C5)nc4c3)c2C#N)C1 (single isomer, unassigned) [Compound 276] |  | ** (<90% and >50%)
 | 50 to 90% |  |  |  | < 1 µM | > 10 µM | < 1 µM |  |  |  |  | CCN(C)S(=O)(=O)Nc1ccc(F)c(Oc2ccc3ncc(OC4CC5(C4)CN(C4CCC(c6cc7c(cc6F)c(N6CCC(=O)NC6=O)nn7C)CC4)C5)nc3c2)c1C#N (single isomer, unassigned) [Compound 281, 7-[2-cyano-3-[[ethyl(methyl)sulfamoyl]amino]-6-fluoro-phenoxy]-2-[[2-[4-[3-(2,4-dioxohexahydropyrimidin-1-yl)-5-fluoro-1-methyl-indazol-6-yl]cyclohexyl]-2-azaspiro[3.3]heptan-6-yl]oxy]quinoxaline] | < 50% | 
 |  |  | < 1 µM | ** (<90% and >50%) | < 1 µM | < 1 µM |  |  |  |  |  | CCN(C)S(=O)(=O)Nc1ccc(F)c(Oc2ccc3ncc(OC4CC5(C4)CN(C4CCC(c6cc7c(cc6F)c(N6CCC(=O)NC6=O)nn7C)CC4)C5)nc3c2)c1C#N (single isomer, unassigned) [Compound 282, 7-[2-cyano-3-[[ethyl(methyl)sulfamoyl]amino]-6-fluoro-phenoxy]-2-[[2-[4-[3-(2,4-dioxohexahydropyrimidin-1-yl)-5-fluoro-1-methyl-indazol-6-yl]cyclohexyl]-2-azaspiro[3.3]heptan-6-yl]oxy]quinoxaline] |  | *** (<=50%)
 | < 50% |  |  |  | < 1 µM | < 1 µM | < 1 µM |  |  |  |  | CO[C@@H]1CCN(S(=O)(=O)Nc2ccc(F)c(Oc3ccc4ncc(C5CC6(CCN(C7CCC(c8cc9c(cc8F)c(N8CCC(=O)NC8=O)nn9C)CC7)CC6)C5)nc4c3)c2C#N)C1 (single isomer, unassigned) [Compound 284] | < 50% | 
 |  |  | < 1 µM |  |  | < 1 µM |  |  |  |  |  | CO[C@@H]1CCN(S(=O)(=O)Nc2ccc(F)c(Oc3ccc4ncc(C5CC6(CCN(C7CCC(c8cc9c(cc8F)c(N8CCC(=O)NC8=O)nn9C)CC7)CC6)C5)nc4c3)c2C#N)C1 (single isomer, unassigned) [Compound 285] |  | 
 | < 50% |  |  |  | < 1 µM | < 1 µM | < 1 µM | *** (<=50%) |  |  |  | CCN(C)S(=O)(=O)Nc1ccc(F)c(Oc2ccc3ncn([C@@H]4CO[C@@]5(CCN(C6CCC(c7cc8c(cc7F)c(N7CCC(=O)NC7=O)nn8C)CC6)C5)C4)c(=O)c3c2)c1C#N (single isomer, unassigned) [Compound 286] | < 50% | 
 |  |  | < 1 µM | *** (<=50%) |  |  |  |  | < 1 µM | < 50% | < 1 µM | CCN(C)S(=O)(=O)Nc1ccc(F)c(Oc2ccc3ncn([C@@H]4CO[C@@]5(CCN(C6CCC(c7cc8c(cc7F)c(N7CCC(=O)NC7=O)nn8C)CC6)C5)C4)c(=O)c3c2)c1C#N (single isomer, unassigned) [Compound 287] |  | *** (<=50%)
 | 50 to 90% |  | > 10 µM |  | < 1 µM | 1 to 10 µM |  |  |  |  |  | CCN(C)S(=O)(=O)Nc1ccc(F)c(Oc2ccc3ncn([C@H]4CO[C@]5(CCN(C6CCC(c7cc8c(cc7F)c(N7CCC(=O)NC7=O)nn8C)CC6)C5)C4)c(=O)c3c2)c1C#N (single isomer, unassigned) [Compound 288] | 50 to 90% | 
 |  |  | < 1 µM | *** (<=50%) | < 1 µM | < 1 µM |  |  | < 1 µM | < 50% | < 1 µM | CCN(C)S(=O)(=O)Nc1ccc(F)c(Oc2ccc3ncn([C@H]4CO[C@]5(CCN(C6CCC(c7cc8c(cc7F)c(N7CCC(=O)NC7=O)nn8C)CC6)C5)C4)c(=O)c3c2)c1C#N (single isomer, unassigned) [Compound 289] |  | *** (<=50%)
 | 50 to 90% |  | > 10 µM |  | < 1 µM | 1 to 10 µM |  |  |  |  |  | CCN(C)S(=O)(=O)Nc1ccc(F)c(Oc2ccc3ncn([C@@H]4CO[C@]5(CCN(C6CCC(c7cc8c(cc7F)c(N7CCC(=O)NC7=O)nn8C)CC6)C5)C4)c(=O)c3c2)c1C#N (single isomer, unassigned) [Compound 290] |  | ** (<90% and >50%)
 |  |  | 1 to 10 µM | ** (<90% and >50%) | < 1 µM | > 10 µM |  |  |  |  |  | CCN(C)S(=O)(=O)Nc1ccc(F)c(Oc2ccc3ncn([C@@H]4CO[C@]5(CCN(C6CCC(c7cc8c(cc7F)c(N7CCC(=O)NC7=O)nn8C)CC6)C5)C4)c(=O)c3c2)c1C#N (single isomer, unassigned) [Compound 291] |  | * (>=90%)
 | < 50% |  |  |  | < 1 µM | < 1 µM | < 1 µM |  | < 1 µM | < 50% | < 1 µM | CCN(C)S(=O)(=O)Nc1ccc(F)c(Oc2ccc3ncn([C@H]4CO[C@@]5(CCN(C6CCC(c7cc8c(cc7F)c(N7CCC(=O)NC7=O)nn8C)CC6)C5)C4)c(=O)c3c2)c1C#N (single isomer, unassigned) [Compound 292] | 50 to 90% | 
 |  |  | < 1 µM | *** (<=50%) |  | < 1 µM |  |  |  |  |  | CCN(C)S(=O)(=O)Nc1ccc(F)c(Oc2ccc3ncn([C@H]4CO[C@@]5(CCN(C6CCC(c7cc8c(cc7F)c(N7CCC(=O)NC7=O)nn8C)CC6)C5)C4)c(=O)c3c2)c1C#N (single isomer, unassigned) [Compound 293] |  | ** (<90% and >50%)
 | 50 to 90% |  |  |  | < 1 µM | < 1 µM | 1 to 10 µM |  |  |  |  | CN(CCO)S(=O)(=O)Nc1ccc(F)c(Oc2ccc3ncc(C4CC5(CCN(C6CCC(c7cc8c(cc7F)c(N7CCC(=O)NC7=O)nn8C)CC6)CC5)C4)nc3c2)c1C#N (single isomer, unassigned) [Compound 294, 7-[2-cyano-6-fluoro-3-[[2-hydroxyethyl(methyl)sulfamoyl]amino]phenoxy]-2-[7-[4-[3-(2,4-dioxohexahydropyrimidin-1-yl)-5-fluoro-1-methyl-indazol-6-yl]cyclohexyl]-7-azaspiro[3.5]nonan-2-yl]quinoxaline] |  | ** (<90% and >50%)
